Measurements published in patent publication US9994691B2, “Antimicrobial cleansing composition” (Conopco, Inc., d/b/a UNILEVER, priority 2014, dated 2018).

Source text: Disclosed antimicrobial cleansing composition includes 0.1 to 100 ppm silver (I) compound. […] More particularly, silver ion solubility [Ag+], a value given in mol/L may be calculated using the formula: [Ag+]=(Ksp·x)^(1/(x+1))

[Cl][Ag] [Silver chloride]
Silver Ion Solubility [Ag+]: 13 µM
